Test results reported in patent US8507488B2, “Fused nitrogen containing heterocycles and compositions thereof as kinase inhibitors” (IRM LLC, priority 2008, dated 2013).
Like-named read-outs stand apart in the source and are kept apart here.

Tests used:
KM12 luc = KM12 luc cell proliferation assay (Table 8); assay type: cell-based; conditions: KM12 luc cells; read-out: KM12 luc IC 50
[1] = target: T1, full length rTrkA and mNGF (Rattus norvegicus, UniProt P35739); test: Inhibition of proliferation of Ba/F3 cells co-expressing full length rTrkA and mNGF (BaF3/TrkA-NFG); assay type: cell-based; conditions: BaF3 TRKA-NGF cells, CTG readout
T1 construct: co-expressing full length rTrkA and mNGF; expressed in transfected cells; host or cells: Ba/F3 cells

Tel-TrkB = target: T2, Tel-TrkB (Homo sapiens, UniProt Q16620); test: Inhibition of proliferation of Ba/F3 cells expressing Tel-TrkB (BaF3/Tel-TrkB); assay type: cell-based; conditions: Ba/F3 Tel-TrkB cells; read-out: Ba/F3 Tel-TrkB IC 50
T2 construct: dimerization domain of Tel (ETV6) transcription factor (fusion partner, human ETV6 P41212); expressed in transfected cells; host or cells: luciferase expressing Ba/F3 murine hematopoietic progenitor cells; the other entry of the earlier key: ETV6 (P41212, Transcription factor ETV6)
Method: (§1) Test compounds were dissolved in DMSO (10 mM) and transferred into 1.4 mL flat bottom or V-shaped Matrix tubes carrying a unique 2D matrix chip by individual compound hubs. The numbers of these chips were distinctively linked to the individual compound identification numbers. The stock solutions were stored at −20° C. if not used immediately. For the test procedure the vials were defrosted and identified by a scanner whereby a working sheet is generated that guides the subsequent working steps.
(§2) Compound dilutions were made in 384 well plates. This format enabled the assay of maximally 28 individual test compounds at 12 concentrations (single points) including 2 reference compounds. The dilution protocol included the production of pre-dilution plates, master plates and assay plates: • Compound plates: 30 μL of individual compound (10 mM) DMSO solution including standard compound were transferred into columns 1 and 13 of a 384 well plate. 20 μL of DMSO were added to the rest of the wells and the compounds were serially diluted (1:3) by transferring 10 μL from a well in column 1 or 13 to the next well in column 2 or 14 respectively and successively with the help of a Minitrack robot. • Assay plates: Identical assay plates were then prepared by adding […] each of compound dilutions of the compound plates into 384-well “assay plates”. In the following the compounds were mixed with 50 μL of assays components (cells or enzyme) and tested for their inhibitory activity.
(§3) Compounds of Formula (I) were tested for their antiproliferative effect on Ba/F3 cells expressing either Tel-TrkA, Tel-TrkB or Tel-TrkC and an additional panel of 34 selected diverse kinases activated by fusion to the dimerizing partners Bcr or Tel (Abl, A1K, BMX, EphA3, EphB2, FGFR2, FGFR3, FGFR4, FGR, FLT1, FLT3, FLT4, FMS, IGF1R, InsR, JAK1, JAK2, JAK3, KDR, Kit, Lck, Lyn, MER, MET, PDGFRb, RET, RON, Ros-1, Src, Aurora, TIE2, TYK2, Tie1, ZAP70). The antiproliferative effect of these compounds on the different cell lines and on the non transformed cells were tested at 12 different concentrations of 3-fold serially diluted compounds in 384 well plates as described above (in media lacking IL3). The IC50 values of the compounds the different cell lines were determined from dose response curves.
(§4) The cell line used is the luciferase expressing Ba/F3 murine hematopoietic progenitor cell line transformed with human Tel-TrkA, Tel-TrkB or Tel-TrkC cDNAs (Ba/F3 EN A/B/C). These cells maintained in RPMI/10% fetal bovine serum (RPMI/FCS) supplemented with penicillin 50 mg/mL, streptomycin 50 mg/mL and L-glutamine […]. Untransformed Ba/F3 cells were similarly maintained with the addition 5 ng/ml of murine recombinant IL3. 50 μl of a Ba/F3 or Ba/F3 EN A/B/C cell suspension were plated in Greiner 384 well microplates (white)) at a density of 2000 cells per well. […] The cells were incubated for 48 hours at 37° C., 5% CO2. 25 μl of Bright Glo® (Promega) luciferase substrate is added to each well. The emited luminiscence is quantified using the ACQUEST™ luminescence system (Molecular Devices). IC50 values were calculated by linear regression analysis of the percentage inhibition of each compound at 12 concentrations.

parental BaF3 cells = test: Proliferation of parental (untransformed) Ba/F3 cells maintained with IL3; assay type: cell-based, murine; conditions: read-out: Ba/F3 IC 50
Method: as §1, §2
The cell line used is the luciferase expressing Ba/F3 murine hematopoietic progenitor cell line transformed with human Tel-TrkA, Tel-TrkB or Tel-TrkC cDNAs (Ba/F3 EN A/B/C). These cells maintained in RPMI/10% fetal bovine serum (RPMI/FCS) supplemented with penicillin 50 mg/mL, streptomycin 50 mg/mL and L-glutamine […]. Untransformed Ba/F3 cells were similarly maintained with the addition 5 ng/ml of murine recombinant IL3. 50 μl of a Ba/F3 or Ba/F3 EN A/B/C cell suspension were plated in Greiner 384 well microplates (white)) at a density of 2000 cells per well. 50 nl of serially diluted test compound (10-0.0001 mM in DMSO solution) is added to each well. The cells were incubated for 48 hours at 37° C., 5% CO2. 25 μl of Bright Glo® (Promega) luciferase substrate is added to each well. The emited luminiscence is quantified using the ACQUEST™ luminescence system (Molecular Devices). IC50 values were calculated by linear regression analysis of the percentage inhibition of each compound at 12 concentrations.

Tel-TrkA = target: T3, Tel-TrkA (Homo sapiens, UniProt P04629); test: Inhibition of proliferation of Ba/F3 cells expressing Tel-TrkA (BaF3/Tel-TrkA, luciferase/Bright Glo readout); assay type: cell-based; conditions: read-out: Ba/F3 Tel-TrkA IC 50
T3 construct: dimerization domain of Tel (ETV6) transcription factor (fusion partner, human ETV6 P41212); expressed in transfected cells; host or cells: luciferase expressing Ba/F3 murine hematopoietic progenitor cells; the other entry of the earlier key: ETV6 (P41212, Transcription factor ETV6)
Method: as §1, §2, §3, §4

[2] = Mus musculus, BaF3, parental Ba/F3 cells

T2 sequence (Q16620 538-822 limits assumed): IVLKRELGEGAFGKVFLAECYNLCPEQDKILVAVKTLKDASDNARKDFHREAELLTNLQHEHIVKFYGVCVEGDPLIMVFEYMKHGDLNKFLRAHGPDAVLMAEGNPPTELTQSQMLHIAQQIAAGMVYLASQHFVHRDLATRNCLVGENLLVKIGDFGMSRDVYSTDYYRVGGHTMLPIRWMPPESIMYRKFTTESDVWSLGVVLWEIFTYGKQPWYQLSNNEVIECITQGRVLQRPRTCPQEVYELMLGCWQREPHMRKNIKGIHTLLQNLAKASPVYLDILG
T3 sequence (P04629 510-796 limits assumed): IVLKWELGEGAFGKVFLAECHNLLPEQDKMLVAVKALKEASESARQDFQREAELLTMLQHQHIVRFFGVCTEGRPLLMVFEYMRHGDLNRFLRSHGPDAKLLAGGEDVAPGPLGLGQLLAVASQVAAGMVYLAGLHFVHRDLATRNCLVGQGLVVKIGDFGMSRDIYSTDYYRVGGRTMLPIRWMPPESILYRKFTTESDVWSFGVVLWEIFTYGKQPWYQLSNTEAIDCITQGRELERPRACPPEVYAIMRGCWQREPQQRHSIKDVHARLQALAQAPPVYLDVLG
T1 sequence (P35739 33-799): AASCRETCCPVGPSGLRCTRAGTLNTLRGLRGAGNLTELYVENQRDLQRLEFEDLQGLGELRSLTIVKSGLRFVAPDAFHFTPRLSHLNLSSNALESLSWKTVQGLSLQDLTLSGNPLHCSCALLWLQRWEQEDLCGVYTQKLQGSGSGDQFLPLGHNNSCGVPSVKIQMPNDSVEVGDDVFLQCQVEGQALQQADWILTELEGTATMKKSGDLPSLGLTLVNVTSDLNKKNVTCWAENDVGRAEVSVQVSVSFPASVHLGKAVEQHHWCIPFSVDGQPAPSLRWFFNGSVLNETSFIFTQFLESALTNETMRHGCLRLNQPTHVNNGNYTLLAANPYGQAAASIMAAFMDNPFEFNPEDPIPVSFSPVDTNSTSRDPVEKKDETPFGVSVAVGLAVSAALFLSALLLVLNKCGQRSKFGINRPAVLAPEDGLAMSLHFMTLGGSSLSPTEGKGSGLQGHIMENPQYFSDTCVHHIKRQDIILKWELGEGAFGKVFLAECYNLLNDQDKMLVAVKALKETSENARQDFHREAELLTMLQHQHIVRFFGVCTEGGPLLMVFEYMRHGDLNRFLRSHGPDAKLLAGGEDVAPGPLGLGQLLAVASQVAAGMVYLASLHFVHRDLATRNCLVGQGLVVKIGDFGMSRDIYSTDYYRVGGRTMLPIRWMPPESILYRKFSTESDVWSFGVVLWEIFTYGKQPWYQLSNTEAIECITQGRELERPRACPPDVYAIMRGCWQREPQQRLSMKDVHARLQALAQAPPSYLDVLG
T1 sequence (P01139 122-241 partner): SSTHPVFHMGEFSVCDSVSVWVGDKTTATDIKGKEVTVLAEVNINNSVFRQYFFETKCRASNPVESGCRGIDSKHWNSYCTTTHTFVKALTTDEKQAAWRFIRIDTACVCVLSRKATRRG

BaF3 TRKA-NGF CTG IC 50 [1] [nM]	IC50 (Tel-TrkB) [nM]	IC50 (Tel-TrkA) [nM]	SMILES	IC50 (KM12 luc) [nM]	IC50 (parental BaF3 cells; [2]) [nM]	IC50 (parental BaF3 cells; parental Ba/F3 cells) [nM]
210	150	115	CN(C)c1nccc(-c2cccc(-c3cnc4ccc(N5CCCC5c5cccc(F)c5)nn34)n2)n1 (stereo not shown) [Table 7-Compound 58]	–	> 10000	–
101	289	130	Fc1ccc(N2CCN(c3cccc(-c4cnc5ccc(N6CCC[C@@H]6c6cccc(F)c6)nn45)n3)CC2)cc1 [Table 7-Compound 257]	–	> 11000	–
29	9	6	[2H]C([2H])([2H])N(C1CCN(c2cccc(-c3cnc4ccc(N5CCC[C@@H]5c5cccc(F)c5)nn34)n2)CC1)C([2H])([2H])[2H] [Table 7-Compound 230]	–	2690	–
130	147	144	CNC1CCN(c2cc(-c3cccc(-c4cnc5ccc(N6CCCC6c6cccc(F)c6)nn45)n3)ccn2)CC1 (stereo not shown) [Table 7-Compound 249]	–	6380	–
13	9	6	OCC1CCCN(c2cccc(-c3cnc4ccc(N5CCCC5c5cccc(F)c5)nn34)n2)C1 (stereo not shown) [Table 7-Compound 98]	–	> 11000	–
93	44	81	CCOC(=O)C1CCN(c2cccc(-c3cnc4ccc(N5CCOCC5c5cccc(F)c5)nn34)n2)CC1 (stereo not shown) [Table 7-Compound 17]	–	> 10000	–
54	28	23	CCN(CC)S(=O)(=O)N1CCN(c2cccc(-c3cnc4ccc(N5CCC[C@@H]5c5cccc(F)c5)nn34)n2)CC1 [Table 7-Compound 231]	–	> 11000	–
64	4.8	47	Fc1cccc(C2CCCN2c2ccc3ncc(-c4cccc(C5OCCO5)n4)n3n2)c1 (stereo not shown) [Table 7-Compound 18]	–	> 10000	–
16	12	14	O=C(COCc1ccccc1)N1CCN(c2cccc(-c3cnc4ccc(N5CCC[C@@H]5c5cccc(F)c5)nn34)n2)CC1 [Table 7-Compound 191]	–	> 9560	–
35	23	43	O=C(NOCC1CC1)C1CCN(c2cccc(-c3cnc4ccc(N5CCOCC5c5cccc(F)c5)nn34)n2)CC1 (stereo not shown) [Table 7-Compound 22]	–	> 10000	–
3	2	2	OCCN1CCN(c2cccc(-c3cnc4ccc(N5CCCC5c5cccc(F)c5)nn34)n2)CC1 (stereo not shown) [Table 7-Compound 100]	–	4380	–
31	53	34	Cc1c[nH]c(C2CCN(c3cccc(-c4cnc5ccc(N6CCOCC6c6cccc(F)c6)nn45)n3)CC2)n1 (stereo not shown) [Table 7-Compound 143]	–	> 11000	–
4.88	3.02	3.34	OC1CCN(c2cncc(-c3cnc4ccc(N5CCCC5c5cccc(F)c5)nn34)n2)CC1 (stereo not shown) [Table 7-Compound 121]	–	> 10000	–
20	20	20	OC1CCN(c2nccc(-c3cccc(-c4cnc5ccc(N6CCCC6c6cccc(F)c6)nn45)n3)n2)CC1 (stereo not shown) [Table 7-Compound 57]	–	6900	–

Continued, molecule first:

SMILES	BaF3 TRKA-NGF CTG IC 50 [1] [nM]	IC50 (Tel-TrkB) [nM]	IC50 (Tel-TrkA) [nM]	IC50 (KM12 luc) [nM]	IC50 (parental BaF3 cells; [2]) [nM]	IC50 (parental BaF3 cells; parental Ba/F3 cells) [nM]
Fc1cccc(C2COCCN2c2ccc3ncc(-c4ccccn4)n3n2)c1 (stereo not shown) [Table 2-Compound 4]	17	5.8	8.6	8.3	> 10000	–
O=C(NCCO)C1CCN(c2cccc(-c3cnc4ccc(N5CCOCC5c5cccc(F)c5)nn34)n2)CC1 (stereo not shown) [Table 7-Compound 12]	8.1	6.7	6.1	1.2	> 10000	–
N#Cc1cc(-c2cnc3ccc(N4CCOCC4c4cccc(F)c4)nn23)ccc1N1CCC(O)CC1 (stereo not shown) [Table 2-Compound 7]	550	230	83	140	> 10000	–
Fc1cccc(C2COCCN2c2ccc3ncc(-c4cccc(N5CC6CC5CN6)n4)n3n2)c1 (stereo not shown) [Table 7-Compound 9]	53	63	59	14	> 10000	–
OCCN1CCN(c2cccc(-c3cnc4ccc(N5CCOCC5c5cccc(F)c5)nn34)n2)CC1 (stereo not shown) [Table 7-Compound 5]	6.4	6.2	3.8	–	4820	–
CC(C)(C)OC(=O)N1CCN(c2cccc(-c3cnc4ccc(N5CCOCC5c5cccc(F)c5)nn34)n2)CC1 (stereo not shown) [Table 2-Compound 16]	140	120	100	–	> 7670	–
CC(C)NC(=O)CN1CCN(c2cccc(-c3cnc4ccc(N5CCCC5c5cccc(F)c5)nn34)n2)CC1 (stereo not shown) [Table 4-Compound 32]	2.6	1.5	1.4	–	–	4990
CCOC(=O)N1CCC(n2c(=O)[nH]c3cc(-c4cnc5ccc(N6CCOCC6c6cccc(F)c6)nn45)ccc32)CC1 (stereo not shown) [Table 2-Compound 19]	1420	1700	2170	–	5050	–
COc1ncc(-c2cnc3ccc(N4CCCC4c4cccc(F)c4)nn23)s1 (stereo not shown) [Table 3-Compound 27]	320	93	140	–	> 10000	–
N#Cc1ccc(-c2cnc3ccc(N4CCOCC4c4cccc(F)c4)nn23)cc1 (stereo not shown) [Table 2-Compound 1]	–	–	–	7	> 9690	–
Fc1cccc(C2COCCN2c2ccc3ncc(-c4cccc(NCCN5CCNCC5)n4)n3n2)c1 (stereo not shown) [Table 7-Compound 10]	77	71	61	–	> 10000	–
Fc1cccc(C2COCCN2c2ccc3ncc(-c4cccc(N5CCOCC5)n4)n3n2)c1 (stereo not shown) [Table 2-Compound 10]	8.8	6.2	6.9	–	> 10000	–
